Laboratory results published in PMC6700801, “Caffeic acid phenethyl ester suppresses androgen receptor signaling and stability via inhibition of phosphorylation on Ser81 and Ser213” (Cell Communication and Signaling : CCS, 2019).
pIC50: −log10 of the molar value.

Molecular target: T1, Androgen receptor (AR) (Rattus norvegicus, UniProt P15207)
T1 sequence (P15207 646-902 limits assumed): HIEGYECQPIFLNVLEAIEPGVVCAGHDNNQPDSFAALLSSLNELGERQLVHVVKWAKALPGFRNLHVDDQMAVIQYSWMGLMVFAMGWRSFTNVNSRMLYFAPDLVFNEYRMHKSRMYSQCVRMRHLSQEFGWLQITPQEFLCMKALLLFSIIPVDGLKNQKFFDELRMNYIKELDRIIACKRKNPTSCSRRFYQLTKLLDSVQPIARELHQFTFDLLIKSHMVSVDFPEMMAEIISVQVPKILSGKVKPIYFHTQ
Assay: fluorescence polarization competition assay (PolarScreen AR Competitor Assay kit); very weak
Format: binding

O=C(/C=C/c1ccc(O)c(O)c1)OCCc1ccccc1 [Caffeic acid phenethyl ester]
pIC50: 3.88
